The text below walks through data of patent US7273847B2, “Peptides with antioxidant and antimicrobial properties” (priority 2000, dated 2007).

Assay [1] concerns surfactant lipids. Put plainly: TBARS assay of copper-induced oxidation of surfactant lipids. It counts as biochemical.
Assay [2] relates to LDL. Put plainly: TBARS assay of copper-induced oxidation of LDL. The format is biochemical, human. The note with it: for TBARS LDL Malondialdehyde: mean ± S.E.M., n=3. Here is the method: Substrates for lipid oxidation included mixtures of natural and synthetic glycerophospholipids that are found in pulmonary surfactant and human LDL. The surfactant lipid mix, composed of egg phosphatidylcholine, dipalmitoylphosphatidylcholine, cholesterol and 1-oleoyl-2-linoleoyl-sn-glycero-3-phosphocholine (1:1:0.15:0.15, w/w, respectively) (Avanti Polar Lipids) in chloroform, was dried to a film under nitrogen. Following hydration in PBS or 0.15 M NaCl for 30 min, multilamellar vesicles were generated by vigorous vortexing for 5 minutes. LDL were isolated from the plasma of normal blood donors by density gradient ultracentrifugation (density=1.019-1.063 g/ml) as previously described in Qin et al., Am. J. Physiol. 274(5 Pt 2): H1836-1840 (1998), and stored in saline-EDTA. Just prior to use, EDTA was removed by dialysis against PBS, and the concentration of LDL was determined by Lowry assay (in milligrams of LDL-associated protein).
Stock solutions of 10 mM CuSO4 were freshly prepared daily. Reaction mixtures containing 1 mg/mi surfactant lipids or 150 μg/ml LDL were incubated with 10 μM CuSO4 for 24 hours or 4 hours, respectively, in the presence of putative oxidation inhibitors or controls at 37° C. in a shaking water bath in accordance with the method of Gelvan et al., Biochim. Biophys. Acta 1035(3):353-360 (1990). Control reactions which included LDL only, 10 μM CuSO4 or protein controls of bovine serum albumin (BSA), rat IgG, recombinant MBP, rat serum and human complement C1q were performed concurrently with experimental samples. Thiobarbituric acid-reactive substances (TBARS) were measured using a method adapted from Gelvan et al., Biochim. Biophys. Acta 1035(3):353-360 (1990). Samples and 0-10 μM […] standards were developed by addition of a solution composed of 0.375% thiobarbituric acid, 15% trichloroacetic acid, and 0.25N HCl at a volume ratio of 1:2, sample: developer. Following incubation at 95° C. for 30 minutes and centrifugation at 14,000 rpm for 15 minutes, an aliquot was read at 540 nm in a spectrophotometer. For continuous assessment of lipid oxidation, the accumulation of conjugated dienes during LDL oxidation was monitored spectrophotometrically in accordance with the method of Esterbauer et al., Free Rad. Med. Biol. 13, 341-390 (1992). Mixtures of 150 μg/ml LDL, 10 μM copper, and various amounts of surfactant proteins or control proteins were placed in quartz cuvettes and allowed to oxidize at room temperature over 335 minutes. Conjugated diene formation was assessed by measuring absorbance at 234 nm in a spectrophotometer.
The data are set forth graphically in FIG. 3. Various concentrations of recombinant wild type SP-A (circle), mutant SP-A containing a deletion of the collagen-like domain (square) and mutant SP-A containing only the neck and C-lectin domain (CLD) (triangle) were incubated with LDL in the presence of 10 μM Cu^2+, and lipid peroxidation was quantified by TBARS assay. Data are means, n=3-4.

For the next assay, the system named is E. coli K12. Put plainly: Radial diffusion growth inhibition in agar. It counts as cell-based. The conditions noted are these: for Inhibition of E. coli growth in presence of anti-mouse SP-A / anti-mouse SP-D antibodies / Inhibition of E. coli growth in presence of excess LPS vesicles: radial diffusion; for Inhibition of E. coli growth in presence of excess LPS vesicles: for SP-A>SP-D. Here is the method: (§1) A radial diffusion method was therefore used to examine the effect of the collectins and their individual structural domains on the growth of E. coli that were immobilized in agar (FIGS. 8,9). Wells were bored into plates containing agar impregnated with 2×10^6 E. coli/ml or GBS. Proteins to be tested were introduced into the wells and the plates were incubated overnight at 37° C.

A further assay has as its system GBS. Put plainly: Radial diffusion growth inhibition in agar. It counts as cell-based. The conditions noted are these: 0.5 and 5.0 μg added. Here is the method: as §1
Assay [3] concerns surfactant lipids. The note with it: comparison value; read-out: I.C.50 of antioxidant serum lipoprotein; cited from earlier work.
The test system of assay [4] is LDL. Put plainly: Western (immunoblot) analysis of protein carbonyl derivatives formed during copper mediated LDL oxidation. It counts as biochemical, human. The conditions noted are these: SP-A 10 μg/ml, SP-D 1 μg/ml; alkylated SP-A 50 μg/ml, alkylated SP-D 10 μg/ml. The procedure: Proteins were analyzed for carbonyl modification of amino acid side groups that occur during lipid oxidation, as described in Levine et al., Methods Enzymol. 186, 464-478 (1990). Briefly, proteins that were included in reactions mixtures with LDL and 10 μM copper were derivatized to 2,4-dinitrophenylhydrazones (DNP-hydrazones) by reaction with 2,4-dinitrophenylhydrazine (DNPH), size fractionated by 8-16% SDS-PAGE under reducing conditions and electrophorectically transferred to nitrocellulose membranes (Oxyblot, Intergen). The membrane was sequentially incubated with a rabbit anti-DNP IgG and a horseradish peroxidase-conjugated goat anti-rabbit IgG. Blots were developed by HRP-dependent oxidation of a chemiluminescent substrate, and visualized using autoradiography.
To determine if the surfactant proteins act as sinks for reactive lipid intermediates, covalent modification of SP-A and SP-D during LDL oxidation was assessed using a western analysis technique that detects carbonyl adducts (Levine et al., Methods Enzymol. 186: 464-78 (1990)). As depicted by FIG. 4, oxidative modification of proteins that occurred during copper induced LDL oxidation were determined by Western analysis using an antibody to DNP-derivatized carbonyl moieties. Reaction mixtures contained LDL only, LDL+Cu^2+, LDL+Cu^2++albumin+10 μg/ml SP-A, LDL+Cu^2++albumin+1 μg/ml SP-D, LDL+Cu^2++albumin, LDL+Cu^2++albumin+50 μg/ml iodoacetamide treated SP-A, LDL+Cu^2++albumin+10 μg/ml iodoacetamide treated SP-D, 50 μg/ml albumin+50 μg/ml iodoacetamide treated SP-A, albumin+10 μg/ml iodoacetamide treated SP-D.
(A western blot detects proteins with antibodies after separation by electrophoresis.)

For “Clq: human complement C1q, the first component of complement [reference compound]”, the “Protection from oxidation of surfactant lipids” value in the assay on surfactant lipids [1] (50 μg/ml control protein) is recorded as “no protection from oxidation”. Moreover, in the assay on surfactant lipids [1] (Lipid + Cu2+ + 50 μg/ml protein, mean ± S.E.M., n=3), the “TBARS Surfactant lipids Malondialdehyde” value amounted to 1.15 ± 0.07 µM. Also, in the assay on LDL [2] (50 μg/ml), the “Effect on LDL lipid oxidation” value is given as “no effect on LDL lipid oxidation”. In addition, the “TBARS LDL Malondialdehyde” value in the assay on LDL [2] (LDL + Cu2+ + 50 μg/ml protein) turned out to be 4.16 ± 0.05 µM.

As to “recombinant mouse SP-A: recombinant mouse SP-A”, in the assay on E. coli K12, the “Inhibition of E. coli growth in presence of anti-mouse SP-A / anti-mouse SP-D antibodies” value is given as “blocked” and the “Inhibition of E. coli growth in presence of excess LPS vesicles” value is on record as “blocked”.

Turning to “lysozyme: positive control protein lysozyme [reference compound]”, in the assay on E. coli K12 (0.5 and 5.0 μg added), the “Clearing in E. coli plates” value is recorded as “dose-dependent clearing”. Also, in the assay on GBS, the “Clearing in GBS plates” value is “dose-dependent clearing”.

B1: ApoAIV: antioxidant serum lipoprotein ApoAIV (protein, UniProt P06727 21-396, looked up)
Apolipoprotein A-IV: EVSADQVATVMWDYFSQLSNNAKEAVEHLQKSELTQQLNALFQDKLGEVNTYAGDLQKKLVPFATELHERLAKDSEKLKEEIGKELEELRARLLPHANEVSQKIGDNLRELQQRLEPYADQLRTQVSTQAEQLRRQLTPYAQRMERVLRENADSLQASLRPHADELKAKIDQNVEELKGRLTPYADEFKVKIDQTVEELRRSLAPYAQDTQEKLNHQLEGLTFQMKKNAEELKARISASAEELRQRLAPLAEDVRGNLRGNTEGLQKSLAELGGHLDQQVEEFRRRVEPYGENFNKALVQQMEQLRQKLGPHAGDVEGHLSFLEKDLRDKVNSFFSTFKEKESQDKTLSLPELEQQQEQQQEQQQEQVQMLAPLES
On to B1, for which the IC50 in the assay on surfactant lipids [3] is 50 nM.

B2: recombinant mouse SP-D: recombinant mouse SP-D (protein)
chain: AEMKSLSQRSVPNTCTLVMCSPTENGLPGRDGRDGREGPRGEKGDPGLPGPMGLSGLQGPTGPVGPKGENGSAGEPGPKGERGLSGPPGLPGIPGPAGKEGPSGKQGNIGPQGKPGPKGEAGPKGEVGAPGMQGSTGAKGSTGPKGERGAPGVQGAPGNAGAAGPAGPAGPQGAPGSRGPPGLKGDRGVPGDRGIKGESGLPDSAALRQQMEALKGKLQRLEVAFSHYQKAALFPDGRSVGDKIFRTADSEKPFEDAQEMCKQAGGQLASPRSATENAAIQQLITAHNKAAFLSMTDVGTEGKFTYPTGEPLVYSNWAPGEPNNNGGAENCVEIFTNGQWNDKACGEQRLVICEF
Take B2: in the assay on E. coli K12, the “Inhibition of E. coli growth in presence of anti-mouse SP-A / anti-mouse SP-D antibodies” value is recorded as “blocked” and the “Inhibition of E. coli growth in presence of excess LPS vesicles” value is “blocked”.

B3: alkylated SP-D: rat SP-D alkylated by incubation with 0.5 M iodoacetamide (protein, UniProt P35248 20-374, looked up)
Pulmonary …: AEMKTLSQRSITNTCTLVLCSPTENGLPGRDGRDGREGPRGEKGDPGLPGPMGLSGLPGPRGPVGPKGENGSAGEPGPKGERGLVGPPGSPGISGPAGKEGPSGKQGNIGPQGKPGPKGEAGPKGEVGAPGMQGSAGAKGPAGPKGERGAPGEQGAPGNAGAAGPAGPAGPQGAPGSRGPPGLKGDRGAPGDRGIKGESGLPDSAALRQQMEALNGKLQRLEAAFSRYKKAALFPDGQSVGDKIFRAANSEEPFEDAKEMCRQAGGQLASPRSATENAAVQQLVTAHSKAAFLSMTDVGTEGKFTYPTGEALVYSNWAPGEPNNNGGAENCVEIFTNGQWNDKACGEQRLVICEF
modifications: alkylated with iodoacetamide
notes: rat SP-D alkylated by incubation with 0.5 M iodoacetamide
Take B3: the “TBARS LDL Malondialdehyde” value with LDL [2] (LDL + Cu2+ + 10 μg/ml protein) was 3.92 ± 0.14 µM. The “LDL oxidation in carbonyl Western analysis” value with LDL [4] was “neither alkylated SP-A at 50 μg/ml or alkylated SP-D at 10 μg/ml inhibited lipid oxidation”.
